Source: patent US9144595B2, “APLs for treating arthritis” (University of Tennessee Research Foundation, priority 2009, dated 2015)
Where “and” joins values, the source holds several entries; their conditions need not be identical. Equal entries are not always repeated.

Key:
RA PBMC = experiment: APL A12 inhibition of IFNγ production by α1(II)-stimulated RA PBMC; type: cell-based, human; settings: for IFNy Stimulation Index: 144 h
Description: We assessed the ability of APL A12 added to cultures of PBMC to affect production of IFNγ and other Th1 and Th2 cytokines by the cultured PBMC stimulated with α1(II) from 18 RA patients, 16 of whom had known HLA DR B1 haplotypes. 16 of these patients were taking methothexate, 10 NSAIDS and 12 anti-TNF agents. One patient was taking Arava. Isolated PBMC were resuspended in Dulbecco's minimal essential medium containing penicillin (100 U/ml), streptomycin (100 μg/ml), 9% fetal calf serum (FCS), and non-essential amino acids thereafter referred to as “Complete Medium” at a concentration of 4×10^6 cells/ml. Aliquots (0.5 ml) of the cell suspension were dispensed into wells of 48 well tissue culture plates (NUNC, Roskilde, Denmark).

RA CD4+ T cells = experiment: Intracellular IFNγ and IL-17 in CD4+ T cells of CII-stimulated RA PBMC (flow cytometry); type: cell-based, human; settings: A12 10 μg/ml co-incubated with CII 50 μg/ml, 5 days; one RA patient; FIG. 2
Excerpt: We assessed the effect of APL A12 added to cultures of RA PBMC stimulated with α1(II) on CD4^+ T cells expression of IFNγ and IL-17 as shown in FIG. 2.
The flow use an IFNγ scale on y-axis 295 and IL-17 on x-axis 290, 291, 292, 293, 294 (log scale). The results of the flow are shown for Control 210 including IFNγ+IL-17 flow 270 and IFNγ Control flow 285. The results of the flow are shown for CII+A12 220 including IFNγ+IL-17 flow 265 and IFNγ Control flow 280. The results of the flow are shown for CII 230 including IFNγ+IL-17 flow 260 and IFNγ Control flow 275. Columns 240, 250 represent IFNγ+IL-17 flow and IFNγ Control flow, respectively. Peripheral blood lymphocytes were placed in culture (2×10^6/well, 24 well plate) and stimulated with either CII alone (50 μg/ml), CII+A12 peptide (10 μg/ml), or PBS for 5 days. […] Cells were then collected and analyzed by flow cytometry using fluorochrome-labeled antibodies specific for CD4, CD8, CD69, IL-17 and IFNγ. […] Data are based on a minimum of 75,000 events analyzed. The IFNγ Controls (right panels) are based on the fluorescence minus one (FMO) approach whereby the antibody of IFNγ is omitted from these samples to make sure that no fluorochrome was spilling over into the IFNγ detector.

DR1 Transgenic mice = experiment: Acute toxicity study of HC Peptide 1 in DR1 transgenic mice; type: in vivo, mouse; settings: for Weight of Mice / Weight of Livers / Weight of Spleens: individual mice, HC Peptide 1 (100 μg) Fed; for Weight of Livers / Weight of Spleens: at sacrifice
Description: Eight DR1 transgenic mice (C57 BL/10 containing a human transgene for DR1) were studied in these acute toxicity studies. The four female litter mates were nine weeks old at the time the studies were initiated. Two female mice and two male mice were randomly assigned to the control group and two female and two male mice were randomly assigned to be treated with HC Peptide 1. Mice were gavaged once daily for seven days with 100 μl IV saline containing 100 μg HC Peptide1. Mice were weighed before treatment and every two days. Mice were examined daily for general healthy appearance, glossy coat, ruffling of hair, lethargy, ad lib behavior, shivering or vigor. At sacrifice on day 7, blood was collected for complete blood count and chemistries were performed by the Clinical Pathology Services, Charles River Laboratories, 251 Ballardvale Street, Wilmington, Mass. 01887. Food and water consumption were monitored in each cage. Liver and spleen were weighed at sacrifice of each mouse. Sections of liver, spleen, kidney, heart, lung, stomach, and small and large intestine, were placed in 10% formalin and processed for routine H and E sections by the Histology Laboratory at the Memphis VAMC. Mice were housed in an IACUC approved facility with 12 hours light and 12 hours darkness.
Changes in body weight over the six days mice were gavaged with 100× the human HC Peptide 1 dose were similar to mice gavaged with IV saline (See Table IX). Water and food consumption were similar between HC Peptide 1 treated and mice gavaged with IV saline (Table X). Upon sacrifice at day 7, the weight of livers and spleens were similar between mice gavaged with 100× the human dose of HC Peptide 1 and mice gavaged with IV saline (See Table XI). The complete blood counts (CBC) after 6 days gavage of DRB1*0401 transgenic mice with 100× the human HC Peptide 1 dose were similar to litter mates gavaged with IV saline. Plasma chemistries were similar in the […] transgenic mice gavaged with 100× the human dose of HC Peptide 1 compared to litter mates gavaged with IV saline.

DR4 mice = experiment: Suppression of immunity to CII and arthritis in DR4 mice; type: in vivo, mouse; settings: high-responder DR4 mice
Description: Assuming that CII263-270 was key to developing immunity to the intact CII molecule, a number of analog peptides where amino acids within this small segment were substituted with those found in the corresponding sites of nonarthritogenic type I collagen were prepared and tested. […] The APL A12 developed for this study has the following amino acid sequence: LGPKGQTGEBG[IAGNKGDQGPK]GEBGPA (SEQ ID NO: 3) where B=hydroxproline. The core determinant of human CII263-270 is bracketed. The underlined residues are those substituted to produce APL A12. The residues amino terminal and carboxy terminal to the core determinant is from the normal human CII sequence.

[1] = Cage 1 Male (two mice), Days 1-2
[2] = Cage 1 Male (two mice), Days 3-4
[3] = Cage 1 Male (two mice), Days 5-6
[4] = Cage 1 Male (two mice), sum of Days 1-6 (unlabelled line)
[5] = Cage 3 Female (two mice), Days 1-2
[6] = Cage 3 Female (two mice), Days 3-4
[7] = Cage 3 Female (two mice), Days 5-6
[8] = Cage 3 Female (two mice), sum of Days 1-6 (unlabelled line)

## LGPKGQTGEBGIAGAKGDQGPKGEBGPA [APL A12]
RA PBMC; APL A12 alone, without α1(II), data not shown
  IFNγ production by RA PBMC: no change from PBS control
RA PBMC; NIH oral CII study
  RA patients who responded to APL A12 in vitro: 50%
RA PBMC; patients with the RA susceptibility shared epitope
  patients with IFNγ production down-regulated by ≧50%: 7 of 10
RA PBMC; patients without the shared epitopes
  patients with IFNγ production down-regulated by ≧50%: 2 of 6
RA PBMC; α1(II) + APL A12 1 μg/ml, individual patients with No Shared Epitope
  IFNy Stimulation Index: 49 and 45 and 1120 and 928 and 586 and 75
RA PBMC; α1(II) + APL A12 1 μg/ml, individual patients with Shared Epitope
  IFNy Stimulation Index: 139 and 49 and 742 and 908 and 3190 and 85 and 203 and −65 and −74
RA PBMC; α1(II) + APL A12 1 μg/ml, individual patients, HLA Unknown
  IFNy Stimulation Index: 42 and 228
RA PBMC; α1(II) + APL A12 10 μg/ml, individual patients with No Shared Epitope
  IFNy Stimulation Index: 12 and −3 and 1220 and 807 and 479 and 91
RA PBMC; α1(II) + APL A12 10 μg/ml, individual patients with Shared Epitope
  IFNy Stimulation Index: 291 and 68 and 37 and 1220 and 644 and 2111 and 93 and 110 and −54 and −66
RA PBMC; α1(II) + APL A12 10 μg/ml, individual patients, HLA Unknown
  IFNy Stimulation Index: 73 and 180
RA PBMC; α1(II) + APL A12 25 μg/ml, individual patients with No Shared Epitope
  IFNy Stimulation Index: 16 and 50 and 934 and 778 and 357 and 106
RA PBMC; α1(II) + APL A12 25 μg/ml, individual patients with Shared Epitope
  IFNy Stimulation Index: 15 and 113 and 123 and 493 and 1350 and 2620 and 154 and 83 and −24 and 1
RA PBMC; α1(II) + APL A12 25 μg/ml, individual patients, HLA Unknown
  IFNy Stimulation Index: 121 and 214
RA CD4+ T cells
  decrease in the number of IFNγ-producing T cells: 75%
  reduction in IL-17 producing T cells: 42%
DR1 Transgenic mice; 100× the human dose vs IV saline
  Plasma chemistries: similar
DR1 Transgenic mice; 100× the proposed highest human dose by gavage, compared to littermates gavaged with IV saline
  general appearance or behavior: no differences
DR1 Transgenic mice; [1]
  Chow Consumed: 13.3 GMS
  Water Consumed: 15 MI
DR1 Transgenic mice; [2]
  Chow Consumed: 10.5 GMS
  Water Consumed: 10 MI
DR1 Transgenic mice; [3]
  Chow Consumed: 14.4 GMS
  Water Consumed: 15 MI
DR1 Transgenic mice; [4]
  Chow Consumed: 38.2 GMS
  Water Consumed: 40 MI
DR1 Transgenic mice; [5]
  Chow Consumed: 15.7 GMS
  Water Consumed: 12.5 MI
DR1 Transgenic mice; [6]
  Chow Consumed: 14.2 GMS
  Water Consumed: 9.5 MI
DR1 Transgenic mice; [7]
  Chow Consumed: 15.3 GMS
  Water Consumed: 13 MI
DR1 Transgenic mice; [8]
  Chow Consumed: 45.2 GMS
  Water Consumed: 35 MI
DR1 Transgenic mice; Day 2, female mice
  Weight of Mice: 21.6 GMS and 19.4 GMS
DR1 Transgenic mice; Day 2, male mice
  Weight of Mice: 22.4 GMS and 21.0 GMS
DR1 Transgenic mice; Day 4, female mice
  Weight of Mice: 21.0 GMS and 18.6 GMS
DR1 Transgenic mice; Day 4, male mice
  Weight of Mice: 21.6 GMS and 20.3 GMS
DR1 Transgenic mice; Day 6, female mice
  Weight of Mice: 21.9 GMS and 19.3 GMS
DR1 Transgenic mice; Day 6, male mice
  Weight of Mice: 22.7 GMS and 20.9 GMS
DR1 Transgenic mice; Time 0, female mice
  Weight of Mice: 21.6 GMS and 18.7 GMS
DR1 Transgenic mice; Time 0, male mice
  Weight of Mice: 22.4 GMS and 20.8 GMS
DR1 Transgenic mice; female mice
  Weight of Livers: 0.99 GMS and 0.87 GMS
  Weight of Spleens: 0.065 GMS and 0.07 GMS
DR1 Transgenic mice; male mice
  Weight of Livers: 1.14 GMS and 0.9 GMS
  Weight of Spleens: 0.09 GMS and 0.06 GMS
DR1 Transgenic mice; sacrifice at day 7, 100× the human dose vs IV saline
  weight of livers and spleens: similar
DR1 Transgenic mice; vs mice gavaged with IV saline
  Water and food consumption: similar
DR4 mice
  immunity to CII and arthritis: profoundly suppress
